Results taken from patent US20030088057A1, “PEPTIDE SUBSTRATES PHOSPHORYLATED BY P21-ACTIVAGED PROTEIN KINASE STATEMENT REGARDING FEDERALLY SPONSORED REASEARCH OR DEVELOPMENT” (priority 1998, published 2003).
Entries after “also recorded” stand apart in the source; their conditions may differ. Read-outs that look alike come from different tables or passages of the source. No end group written: not given here.

How the values were obtained:
γ-PAK [1] = biological target: T1, γ-PAK (Oryctolagus cuniculus, UniProt Q29502); experiment: Phosphorylation of heptapeptides by Cdc42-activated γ-PAK with ATP(Mg) and ATP(Mn); assay type: biochemical, rabbit; details: γ-PAK 2.5 units, Cdc42(GTPγS)-activated; 10 mM MgCl2 or 6 mM MnCl2
T1 construct: γ-PAK was purified from rabbit reticulocytes to apparent homogeneity; from tissue; host or cells: rabbit reticulocytes (γ-PAK)
Protocol: Synthetic heptapeptides were used to examine the activity of γ-PAK with manganese and magnesium. The peptides were incubated with γ-PAK (2.5 units), activated by autophosphorylation in the presence of Cdc42(GTPγS) and 10 mM MgCl2 or 6 mM MnCl2 as described under Experimental Procedures.

γ-PAK [2] = experiment: Rates of phosphorylation of synthetic peptides by γ-PAK; assay type: biochemical, rabbit; details: for substrate for γ-PAK (in words): synthetic peptides; for 32P incorporated, %: AKRASAA taken as 100%
Text: (§1) A. Materials. γ-PAK was purified from rabbit reticulocytes to apparent homogeneity by chromatography on DEAE-cellulose, SP-Sepharose, protamine agarose, and FPLC on Mono S and Mono Q. Histone I (type IIIS), mixed histone (type IIAS), trypsin (L-1-tosylamido-2-phenylethyl chloromethyl ketone treated), soybean trypsin inhibitor, bovine serum albumin (fatty acid free), and myelin basic protein were purchased from Sigma. Purified histones 2B and 4 were purchased from Boehringer-Mannheim. Myosin light chain from rabbit skeletal muscle was a gift from Dr. James Stull, University of Texas Southwestern Medical Center, Dallas, Tex.; rat prolactin was provided by Dr. Ameae Walker, University of California, Riverside, Calif.; and the purified catalytic subunit of cAMP-dependent protein kinase from bovine heart was a gift from Dr. William H. Fletcher, J. L. Pettis Memorial V. A. Hospital, Loma Linda, Calif. Protein kinase C was purified from bovine brain according to the procedure of Walton et al. [Walton, G. M., et al., Anal Biochem., 161:425-437 (1987)], with modifications [Venema, R. C., et al., J. Biol. Chem., 266:5298-5302 (1991)]. The clone for GST-Cdc42 was generously provided by Dr. Channing Der, University of North Carolina, Chapel Hill, N.C. Cellulose thin-layer chromatography sheets were from Kodak.
(§2) D. Phosphorylation Assays. Phosphorylation of protein substrates was carried out in 35 μL reaction mixtures containing 20 mM Tris-HCl, pH 7.4, 10 mM MgCl2, 30 mM 2-mercaptoethanol, 0.2 mM ATP (specific activity =1000 cpm/pmol), 2 μg of protein substrate, and 20 units of active γ-PAK (an enzyme unit is defined as the amount of enzyme that incorporates 1 pmol of phosphate into histone IIAS/ min at 30°. Under these conditions, phosphate incorporation was linear and initial rates of phosphorylation were measured. After incubation at 30° C. for 15 min, reactions were terminated by the addition of 5 μL of 100 mM nonlabeled ATP and sample buffer for gel electrophoresis [Hathaway, G. M., et al., Methods Enzymol., 60:495-511 (1979)]. Reaction mixtures were subjected to SDS-PAGE on 15% polyacrylamide gels followed by autoradiography. Phosphorylation was quantified by excising the protein band and counting the incorporated ^32P in a liquid scintillation counter. The specific activity of γ-PAK was 400 pmol min^−1 μg^−1 as reported previously using 0.2 mM ATP and 1 mg/mL mixed histone as substrate [Rooney, R. D., et al., (1996), supra].
(§3) Assays with peptides (I mM) were carried out with γ-PAK (1.6-5.6 units) in 25 μL reaction mixtures incubated for 30 min at 30° C. under conditions described above, except that 0.4 mg/mL of bovine serum albumin was added and the specific activity of ATP was 300-2000 cpm/pmol. Reactions were terminated with 5 μL of 100 mM ATP, and the amount of ^32p incorporated was quantitated by precipitation of 20 μL aliquots on P81 phosphocellulose paper with 75 mM H3PO4 as described previously [Bensen, E. S., et al., Biochim. Biophys. Acta, 1292:249-258 (1996)]. Peptides containing only one basic amino acid were analyzed by thin-layer electrophoresis on cellulose sheets for 2 h at 600 V with pyridine/acetic acid/water (10:100:890), pH 3.5, as solvent, as described previously [Bensen, E. S., et al., supra]. Activation of γ-PAK by autophosphorylation in the presence of Cdc42(GTPγS) was performed as previously described [Jakobi, R., et al., supra]. γ-PAK was also activated by limited digestion with trypsin as described previously [Rooney, R. D., et al., (1996), supra].
Target sequence in this assay (Q29502 249-500 limits assumed): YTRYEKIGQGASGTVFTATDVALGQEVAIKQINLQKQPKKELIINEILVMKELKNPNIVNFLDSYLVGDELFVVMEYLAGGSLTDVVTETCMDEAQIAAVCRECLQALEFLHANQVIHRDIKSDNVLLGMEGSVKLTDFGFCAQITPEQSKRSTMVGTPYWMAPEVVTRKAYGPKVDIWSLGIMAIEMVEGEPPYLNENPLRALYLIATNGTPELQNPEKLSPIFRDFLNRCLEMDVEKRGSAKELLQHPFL

γ-PAK [3] = experiment: Kinetic parameters (Km, Vmax) for phosphorylation of synthetic peptides by γ-PAK; assay type: biochemical, rabbit; details: for Km: read-out: Km
Protocol: as §3
Target sequence in this assay (Q29502 249-500 limits assumed): as above

PKC = experiment: Rates of phosphorylation of synthetic peptides by PKC; assay type: biochemical, bovine; details: for 32P incorporated: PKC (3.4 units), with Ca2+ and phospholipids, 0.14 mM ATP; for 32P incorporated, %: PKC, AKRASAA taken as 100%
Text: as §1
(§4) Reactions with PKA (10.5 units) were carried out under the same conditions as with γ-PAK except that 0.14 mM ATP was used. Reactions with PKC (3.4 units) were performed as with PKA, with the addition of 0.4 mM CaCl2, phosphatidylinositol (15 μg/mL), phosphatidylserine (15 μg/ mL), and 1,2-diolein (3 μg/mL), as described [Tuazon, P. T., et al., (1989), supra]. A unit of PKA or PKC is defined as the amount of enzyme that incorporates 1 pmol of phosphate/min at 30° C. into histone IIAS or histone 1, respectively.
PKA and PKC are known to require basic amino acids on the N-terminal side of the phosphorylatable serine/ threonine. To distinguish their substrate specificities from that of γ-PAK, the relative rates of phosphorylation were determined with the synthetic peptide substrates using the conditions for γ-PAK, with the addition of Ca^2+ and phospholipids for PKC. The rates shown in Table 5 are calculated with equivalent units of enzyme; the rate of phosphorylation of the peptide AKRASAA (SEQ ID NO:6) is taken as 100% for all three enzymes. As would be expected, PKA preferentially phosphorylated the peptides that contained RR or RK at the −3 and −2 positions and with […] residues or proline at the −4 and −1 positions inhibitory. PKC recognized SKR>RKS>KKS. The most notable difference between γ-PAK and PKA or PKC is the effect of acidic residues on the susceptibility of the peptide to be phosphorylated. An acidic residue in the −1 or −4 position was beneficial for γ-PAK but was detrimental for both PKA and PKC (Table 5). […] In addition, γ-PAK could not tolerate an arginine in the −3 position when lysine was in the −2 position.

PKA = biological target: T2, PKA (Bos taurus, UniProt P00517); experiment: Rates of phosphorylation of synthetic peptides by PKA; assay type: biochemical, bovine; details: for 32P incorporated: PKA (10.5 units), 0.14 mM ATP
T2 construct: the purified catalytic subunit of cAMP-dependent protein kinase from bovine heart was a gift; from tissue; host or cells: bovine heart (gift from Dr. William H. Fletcher)
Text: as §1, with “Myosin light chain from rabbit skeletal muscle was a gift from Dr. James Stull, University of Texas Southwestern Medical Center, Dallas, Tex.; rat prolactin was provided by Dr. Ameae Walker, University of California, Riverside, Calif.; and the purified catalytic subunit of cAMP-dependent protein kinase from bovine heart was a gift from Dr. William H. Fletcher, J. L. Pettis Memorial V. A. Hospital, Loma Linda, Calif.” left out
as §4
PKA and PKC are known to require basic amino acids on the N-terminal side of the phosphorylatable serine/ threonine. To distinguish their substrate specificities from that of γ-PAK, the relative rates of phosphorylation were determined with the synthetic peptide substrates using the conditions for γ-PAK, with the addition of Ca^2+ and phospholipids for PKC.

γ-PAK [4] = experiment: Phosphorylation of protein substrates by γ-PAK; assay type: biochemical, rabbit; details: for substrate for γ-PAK (in words): proteins
Protocol: as §2
Target sequence in this assay (Q29502 249-524 limits assumed): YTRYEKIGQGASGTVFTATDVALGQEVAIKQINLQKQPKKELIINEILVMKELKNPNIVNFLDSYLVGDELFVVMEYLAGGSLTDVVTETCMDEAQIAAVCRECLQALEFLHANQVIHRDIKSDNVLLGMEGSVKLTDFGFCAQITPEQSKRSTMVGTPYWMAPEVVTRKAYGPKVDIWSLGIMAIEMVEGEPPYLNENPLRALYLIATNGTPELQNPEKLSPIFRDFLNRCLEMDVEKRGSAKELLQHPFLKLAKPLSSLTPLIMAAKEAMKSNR
A number of proteins were examined as substrates, and their relative rates of phosphorylation were compared (Table 6).

[5] = Cdc42(GTPγS)-activated γ-PAK, peptide 1 mM, KKRKSAA = 100
[6] = proteolytically (trypsin) activated γ-PAK, peptide 1 mM, compared to KKRKSAA = 100
[7] = proteolytically activated γ-PAK (5.6 units), peptide 1 mM, 30 min at 30° C.
[8] = γ-PAK, calculated with equivalent units of enzyme
[9] = Table 3, influence of acidic amino acids
[10] = Table 4, influence of proline and glycine

T1 sequence (Q29502 2-524 limits assumed): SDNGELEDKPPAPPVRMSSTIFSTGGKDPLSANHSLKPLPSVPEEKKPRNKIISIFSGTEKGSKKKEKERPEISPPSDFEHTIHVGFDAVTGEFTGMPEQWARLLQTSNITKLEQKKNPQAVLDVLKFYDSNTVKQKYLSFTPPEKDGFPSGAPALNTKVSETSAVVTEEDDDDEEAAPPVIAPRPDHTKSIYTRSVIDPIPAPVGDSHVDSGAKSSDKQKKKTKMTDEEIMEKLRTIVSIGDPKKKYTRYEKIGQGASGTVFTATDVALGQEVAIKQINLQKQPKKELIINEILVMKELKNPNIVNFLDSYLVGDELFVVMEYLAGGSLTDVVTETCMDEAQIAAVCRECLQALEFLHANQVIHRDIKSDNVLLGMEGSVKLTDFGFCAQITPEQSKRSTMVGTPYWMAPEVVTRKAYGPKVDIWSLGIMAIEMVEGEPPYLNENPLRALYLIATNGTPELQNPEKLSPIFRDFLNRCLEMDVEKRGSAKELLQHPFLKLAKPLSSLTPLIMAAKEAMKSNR

“AKAASAA (AKAASAA-NH2) [synthetic peptide with an amide C-terminal group]” was tested, and the “phosphorylation using ATP(Mg) or ATP(Mn) (in words)” value (“phosphorylation … (in words)” below) (γ-PAK [1]) was “not phosphorylated”, the “rel rate (%)” value (γ-PAK [2]; [5]) was 3% and the “rel rate (%)” value (γ-PAK [2]; [6]) was 2%. For the same substance, the 32P incorporated (γ-PAK [2]; [7]) was 5 pmol/min/µg, the “substrate for γ-PAK (in words)” value (γ-PAK [2]) was “did not serve as substrate; also recorded: could not be phosphorylated” and the Km (γ-PAK [3]; Table 2, influence of basic amino acids, γ-PAK 1.6 units, ATP 0.2 mM) was over 5000 µM.

With “AKKASAA (AKKASAA-NH2) [synthetic peptide with an amide C-terminal group]” the “phosphorylation … (in words)” value (γ-PAK [1]) was “not phosphorylated” and the “substrate for γ-PAK (in words)” value (γ-PAK [2]) was “poor substrates”.

With “AKRESAA (AKRESAA-NH2) [synthetic peptide with an amide C-terminal group]” the 32P incorporated (PKC) was 0.4 pmol/unit, the “32P incorporated, %” value (PKC) was 12% and the “phosphorylation … (in words)” value (γ-PAK [1]) was “good substrates”. For the same substance, the “rel rate (%)” value (γ-PAK [2]; [5]) was 295%, the “rel rate (%)” value (γ-PAK [2]; [6]) was 247% and the 32P incorporated (γ-PAK [2]; [7]) was 750 pmol/min/µg. For the same substance, the “32P incorporated, %” value (γ-PAK [2]; γ-PAK) was 176%, the 32P incorporated (γ-PAK [2]; [8]) was 47.2 pmol/unit and the “rate of phosphorylation compared to AKRASAA” value (γ-PAK [2]; γ-PAK, relative to AKRASAA) was 175%. The “increase of Km compared to AKRASAA” value (γ-PAK [3]) was about 3 fold, the “increase of Vmax compared to AKRASAA” value (γ-PAK [3]) was 6 fold and the “overall rate of phosphorylation (Vmax/Km) compared to AKRASAA” value (γ-PAK [3]) was about 2.2 fold. The Vmax (γ-PAK [3]; [9]) was 6.62 pmol/min, the Km (γ-PAK [3]; [9]) was 1350 µM and the Vmax (γ-PAK [3]; text summary b32) was 6.62 pmol/min. The 32P incorporated (PKA) was 1.8 pmol/unit and the “32P incorporated, %” value (PKA; PKA, AKRASAA taken as 100%) was 38%.

In the case of “PKRASAA (PKRASAA-NH2) [synthetic peptide with an amide C-terminal group]”, the 32P incorporated (PKC) is reported as 8.7 pmol/unit, the “32P incorporated, %” value (PKC) is reported as 264% and the “rel rate (%)” value (γ-PAK [2]; [5]) is reported as 184%. The “rel rate (%)” value (γ-PAK [2]; [6]) was 209%, the 32P incorporated (γ-PAK [2]; [7]) was 636 pmol/min/µg and the “32P incorporated, %” value (γ-PAK [2]; γ-PAK) was 151%. The 32P incorporated (γ-PAK [2]; [8]) was 40.5 pmol/unit, the “decrease of Km compared to AKRASAA” value (γ-PAK [3]) was “≈ 2 fold” and the “increase of Vmax compared to AKRASAA” value (γ-PAK [3]) was “no effect”. The “overall rate of phosphorylation (Vmax/Km) compared to AKRASAA” value (γ-PAK [3]) was 2 fold, the Vmax (γ-PAK [3]; [10]) was 1.10 pmol/min and the Km (γ-PAK [3]; [10]) was 240 µM. For the same substance, the 32P incorporated (PKA) was 6.9 pmol/unit.

With casein the “substrate for γ-PAK (in words)” value (γ-PAK [4]) was “not substrates”.

For “cdc42: small G protein; not a substrate for γ-PAK (data not shown)”, the “substrate for γ-PAK (in words)” value (γ-PAK [4]) was “not substrates”.

protamine was tested, and the 32P incorporated (γ-PAK [4]; 2 μg protein substrate, 20 units active γ-PAK, 15 min at 30° C.) was 0 pmol, the “substrate for γ-PAK (in words)” value (γ-PAK [4]) was “not a good substrate; also recorded: did not serve as substrates” and the “substrate for γ-PAK (in words)” value (γ-PAK [4]; listed as Protamine) was “not substrates”. The rel rate (γ-PAK [4]; relative to histone 2B = 100) was 0%.
